Source: patent US20230159510A1, “NOVEL PRMT5 INHIBITORS” (AMGEN INC., priority 2020, published 2023)
Where two headings read alike, the source gives them in different places.

Assays:
[1] = test system: HCT116 MTAP null cells; assay: HCT116 proliferation assay, MTAP null cells (CellTiter-Glo, 6 days); type: cell-based; settings: 144 h, read-out: Protif_ HCT116-MTAP null IC50
Protocol: (§1) HCT116 MTAP null and WT cells were seeded in 96-well tissue culture plates in RPMI 1640 media + 10% fetal bovine serum. Plates were incubated overnight at 37° C. and 5% CO2. Cells were then treated with a 8- or 9-point serial dilution of compound, using a top concentration of 1 or 10 µM, 1:3 serial dilution steps and, a DMSO-only control. Cells were incubated in the presence of drug for 6 days. Effects on cell viability were measured with the CellTiter-Glo® Luminescent Cell Viability Assay (Promega) per manufacturer’s recommendation. Assay plates were read on an EnVision™ Multilabel Reader using the Ultra-Sensitive luminescence module.

[2] = test system: HCT116 WT cells; assay: HCT116 proliferation assay, WT cells (CellTiter-Glo, 6 days); type: cell-based; settings: Homo sapiens, HCT-116, 144 h, read-out: Prolif_HCT116-WT IC50
Protocol: as §1

Row | IC50 ([1]; HCT116-MTAP null) [nM] | IC50 [2] [nM] | SMILES | IC50 [1] [nM]
1 | 168 | 4230 | Cc1cc2cc(C(=O)N(Cc3ccc(C(F)(F)F)cn3)Cc3ncccn3)c(F)cc2nc1N [Example 319, 2-amino-7-fluoro-3-methyl-N-(2-pyrimidinylmethyl)-N-((5-(trifluoromethyl)-2-pyridinyl)methyl)-6-quinolinecarboxamide] | 
2 | 405 | > 10000 | Cc1cc2cc(C(=O)N(Cc3ccc(C(F)(F)F)cn3)Cc3ncc(Cl)cn3)ccc2nc1N [Example 339, 2-amino-N-((5-chloro-2-pyrimidinyl)methyl)-3-methyl-N-((5-(trifluoromethyl)-2-pyridinyl)methyl)-6-quinolinecarboxamide] | 
3 | 165 | > 1000 | Cc1cc2cc(C(=O)N(Cc3ccc(N4CCCCC4)cc3)Cc3ccnc4[nH]ccc34)ccc2nc1N [Example 563, 2-amino-3-methyl-N-[[4-(1-piperidyl)phenyl]methyl]-N-(1H-pyrrolo [2,3-b]pyridin-4-ylmethyl)quinoline-6-carboxamide] | 
4 | 102 | > 1000 | Cc1cc2cc(C(=O)N(Cc3ccc(C(F)(F)F)cn3)Cc3csnn3)ccc2nc1N [Example 564, 2-amino-3-methyl-N-(thiadiazol-4-ylmethyl)-N-[[5-(trifluoromethyl)-2-pyridyl]methyl] quinoline-6-carboxamide] | 
5 | 331 | 7160 | Cc1cc2cc(C(=O)N(Cc3ccc4c(c3)NC(=O)CO4)Cc3ccccc3F)ccc2nc1N [Example 569, 2-amino-N-[(2-fluorophenyl)methyl]-3-methyl-N-[(3-oxo-4H-1,4-benzoxazin-6-yl)methyl] quinoline-6-carboxamide] | 
6 | 760 | > 1000 | Cc1cc2cc(C(=O)N(Cc3ccc(N4CCC(C(N)=O)CC4)cc3)Cc3ccnc4[nH]ccc34)ccc2nc1N [Example 573, N-((1H-pyrrolo[2,3-b]pyridin-4-yl)methyl)-2-amino-N-(4-(4-carbamoylpiperidin-1-yl)benzyl)-3-methylquinoline-6-carboxamide] | 
7 | 95 | > 1000 | Cc1cc2cc(C(=O)N(Cc3ccc(C(F)(F)F)cn3)Cc3ncoc3C)ccc2nc1N [Example 579, 2-amino-3-methyl-N-[(5-methyloxazol-4-yl)methyl]-N-[[5-(trifluoromethyl)-2-pyridyl]methyl]quinoline-6-carboxamide] | 
8 | 490 | > 1000 | Cc1cc2cc(C(=O)N(Cc3ccc(C(F)(F)F)cn3)Cc3cc(Cl)cn3C)ccc2nc1N [Example 582, 2-amino-N-((4-chloro-1-methyl-1H-pyrrol-2-yl)methyl)-3-methyl-N-((5-(trifluoromethyl)pyridin-2-yl)methyl)quinoline-6-carboxamide] | 
9 | 140 | > 1000 | Cc1cc2cc(C(=O)N(Cc3cc[nH]c3)Cc3ccc(C(F)(F)F)cn3)ccc2nc1N [Example 583, N-((1H-pyrrol-3-yl)methyl)-2-amino-3-methyl-N-((5-(trifluoromethyl)pyridin-2-yl)methyl)quinoline-6-carboxamide] | 
10 | 290 | > 1000 | CCOC(C)CN(Cc1ccc(C(F)(F)F)cn1)C(=O)c1ccc2nc(N)c(C)cc2c1 (centres unmarked) [Example 584, 2-amino-N-(2-ethoxypropyl)-3-methyl-N-((5-(trifluoromethyl)pyridin-2-yl)methyl)quinoline-6-carboxamide] | 
11 | 580 | 11000 | Cc1cc2cc(C(=O)N(CCc3ccon3)Cc3ccc(C(F)(F)F)cn3)ccc2nc1N [Example 585, 2-amino-N-(2-(isoxazol-3-yl)ethyl)-3-methyl-N-((5-(trifluoromethyl)pyridin-2-yl)methyl)quinoline-6-carboxamide] | 
12 | 344 | 5550 | CCc1csc(CN(Cc2ccc(C(F)(F)F)cn2)C(=O)c2ccc3nc(N)c(C)cc3c2)n1 [Example 586, 2-amino-N-((4-ethylthiazol-2-yl)methyl)-3-methyl-N-((5-(trifluoromethyl)pyridin-2-yl)methyl)quinoline-6-carboxamide] | 
13 | 807 | 404 | Cc1cc2cc(C(=O)N(Cc3ccccc3F)C3CC(c4ccc(OC(F)(F)F)cc4)C3)ccc2nc1N (centres unmarked) [Example 587, 2-amino-N-(2-fluorobenzyl)-3-methyl-N-(3-(4-(trifluoromethoxy)phenyl)cyclobutyl)quinoline-6-carboxamide] | 

The next lines start with the compound.

Row | SMILES | IC50 ([1]; HCT116-MTAP null) [nM] | IC50 [2] [nM] | IC50 [1] [nM]
14 | CC(c1ncccc1F)N(Cc1ccc(N2CCOCC2)nn1)C(=O)c1cnc2nc(N)c(Br)cc2c1 (stereo in doubt) [Example 730, 7-amino-6-bromo-N-((1R)-1-(3-fluoro-2-pyridinyl)ethyl)-N-((6-(4-morpholinyl)-3-pyridazinyl)methyl)-1,8-naphthyridine-3-carboxamide] | 507 | 8460 | 
15 | Cc1cc2cc(C(=O)N(Cc3ccc(N4CCOCC4)nn3)C(C)c3ncccn3)c(F)cc2nc1N (stereo in doubt) [Example 731, 2-amino-7-fluoro-3-methyl-N-((6-(4-morpholinyl)-3-pyridazinyl)methyl)-N-((1R)-1-(2-pyrimidinyl)ethyl)-6-quinolinecarboxamide] | 50 | 693 | 
16 | COc1ccc(CN(C(=O)c2ccc3nc(N)c(Br)cc3c2)C(C)c2ncn(C)n2)nn1 (stereo in doubt) [Example 755, (R)-2-amino-3-bromo-N-((6-methoxypyridazin-3-yl)methyl)-N-(1-(1-methyl-1H-1,2,4-triazol-3-yl)ethyl)quinoline-6-carboxamide] | 184 | > 10000 | 
17 | Cc1cc2cc(C(=O)N(Cc3ccc(C(F)(F)F)cn3)CC(C)C)ccc2nc1N [Example 300, 2-amino-N-isobutyl-3-methyl-N-((5-(trifluoromethyl)pyridin-2-yl)methyl)quinoline-6-carboxamide] |  | 5300 | 317
18 | [2H]C([2H])([2H])c1cc2cc(C(=O)N(Cc3ccc(C(F)(F)F)cn3)CC(C)C)ccc2nc1N [Example 398, 2-amino-N-isobutyl-3-(methyl-d3)-N-((5-(trifluoromethyl)pyridin-2-yl)methyl)quinoline-6-carboxamide] |  | 4780 | 247
19 | [2H]C([2H])([2H])c1cc2cc(C(=O)N(Cc3ccc(C(F)(F)F)cn3)[C@H](C)c3ncccn3)ccc2nc1N [Example 399, (R)-2-amino-3-(methyl-d3)-N-(1-(pyrimidin-2-yl)ethyl)-N-((5-(trifluoromethyl)pyridin-2-yl)methyl)quinoline-6-carboxamide] |  | 872 | 36
20 | Cc1cc2cc(C(=O)N(Cc3ccc(C(F)(F)F)cn3)[C@H](C)c3ncccn3)ccc2nc1N [Example 503, 2-amino-3-methyl-N-((1R)-1-(2-pyrimidinyl)ethyl)-N-((5-(trifluoromethyl)-2-pyridinyl)methyl)-6-quinolinecarboxamide] |  | 680 | 26
21 | Cc1cc2cc(C(=O)N(Cc3ccc(N4CCC(C(N)=O)CC4)cc3)CC(C)C3CC3)ccc2nc1N (centres unmarked) [Example 571, 2-amino-N-(4-(4-carbamoylpiperidin-1-yl)benzyl)-N-(2-cyclopropylpropyl)-3-methylquinoline-6-carboxamide] | 202 | > 1000 | 
22 | Cc1cc2cc(C(=O)N(Cc3ccc(N4CCCCC4)cc3)CC3(C#N)CC3)ccc2nc1N [Example 574, 2-amino-N-((1-cyanocyclopropyl)methyl)-3-methyl-N-(4-(piperidin-1-yl)benzyl)quinoline-6-carboxamide] | 490 | > 1000 | 
